Patent publication US20220062240A1, “METHODS OF TREATING CANCER USING A CLK INHIBITOR” (BioSplice Therapeutics, Inc., priority 2018, published 2022)
Like-named read-outs stand apart in the source and are kept apart here.

Tests used:
[1] = test system: prostate cancer (5 cell lines); assay: CellTiter-Glo Viability Assay, prostate cancer; type: cell-based; conditions: Homo sapiens
[2] = test system: ovarian cancer (4 cell lines); assay: CellTiter-Glo Viability Assay, ovarian cancer; type: cell-based; conditions: Homo sapiens, inhibition of cancer cell proliferation
[3] = test system: liver cancer (3 cell lines); assay: CellTiter-Glo Viability Assay, liver cancer; type: cell-based; conditions: Homo sapiens, inhibition of cancer cell proliferation
all 50 cell lines = assay: CellTiter-Glo Viability Assay, average across all cell lines; type: cell-based; conditions: Homo sapiens; across all 50 cell lines; read-out: average EC50 for inhibition of cancer cell proliferation
How it was run: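 Cancer cell lines of several tumour types plated at 300-3,000 cells/well and exposed to compound in duplicate for four days at 37° C, 5% CO2, with DMSO-treated controls. Viability read by CellTiter-Glo luminescence (ATP content); EC50 derived from dose-response curves.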

[4] = test system: lung cancer (4 cell lines); assay: CellTiter-Glo Viability Assay, lung cancer; type: cell-based; conditions: Homo sapiens, inhibition of cancer cell proliferation
CLK2 = biological target: T1, CLK2 (Homo sapiens, UniProt P49760); assay: CLK2 kinase activity assay (Z-lyte, Ser/Thr 6 peptide); type: biochemical; conditions: recombinant CLK2 kinase, ATP 60 μM; read-out: EC50
T1 construct: purchased Thermo Fisher (Life Technologies), Z'-LYTE Kinase Assay Kits
Procedure: All reactions were performed in duplicate.

[5] = test system: pancreatic cancer (8 cell lines); assay: CellTiter-Glo Viability Assay, pancreatic cancer; type: cell-based; conditions: Homo sapiens, inhibition of cancer cell proliferation
[6] = test system: colorectal cancer (6 cell lines); assay: CellTiter-Glo Viability Assay, colorectal cancer; type: cell-based; conditions: Homo sapiens, inhibition of cancer cell proliferation
T47D = assay: CellTiter-Glo Viability Assay, breast cancer; type: cell-based; conditions: Homo sapiens, 96 h, breast cancer, four days, read-out: EC50
MCF7 = assay: CellTiter-Glo Viability Assay, breast cancer; type: cell-based; conditions: Homo sapiens, 96 h; MCF7, breast cancer, four days; read-out: EC50
HCC1599 = assay: CellTiter-Glo Viability Assay, breast cancer; type: cell-based; conditions: Homo sapiens, 96 h; HCC1599, breast cancer, four days; read-out: EC50
DU4475 = assay: CellTiter-Glo Viability Assay, breast cancer; type: cell-based; conditions: Homo sapiens, DU-4475, 96 h; DU4475, breast cancer, four days; read-out: EC50
ZR-75-1 = assay: CellTiter-Glo Viability Assay, breast cancer; type: cell-based; conditions: Homo sapiens, 96 h; ZR-75-1, breast cancer, four days; read-out: EC50
MDA-MB-231-Luc = assay: CellTiter-Glo Viability Assay, breast cancer; type: cell-based; conditions: Homo sapiens, 96 h; MDA-MB-231-Luc, breast cancer, four days; read-out: EC50
BT-549 = assay: CellTiter-Glo Viability Assay, breast cancer; type: cell-based; conditions: Homo sapiens, 96 h; BT-549, breast cancer, four days; read-out: EC50
CAMA1 = assay: CellTiter-Glo Viability Assay, breast cancer; type: cell-based; conditions: Homo sapiens, CAMA-1, 96 h; CAMA1, breast cancer, four days; read-out: EC50
[7] = test system: haematopoietic & lymphoid tumors (13 cell lines); assay: CellTiter-Glo Viability Assay, haematopoietic & lymphoid tumors; type: cell-based; conditions: Homo sapiens, inhibition of cancer cell proliferation
[8] = DU-145, read-out: Prostate cancer EC50 Du-145
[9] = PC-3, PC3 cell line, inhibition of cancer cell proliferation, read-out: Prostate cancer EC50 PC3
[10] = 22Rv1 cell line, inhibition of cancer cell proliferation, read-out: Prostate cancer EC50 22Rv1
[11] = LNCap clone FGC cell line, inhibition of cancer cell proliferation, read-out: Prostate cancer EC50 LNCap clone FGC
[12] = VCaP (Sigma) cell line, inhibition of cancer cell proliferation, read-out: Prostate cancer EC50 VCaP (Sigma)
[13] = PA-1, PA1 cell line, read-out: Ovarian cancer, EC50 (μM) PA1
[14] = TOV112D, TOV-112D cell line, read-out: Ovarian cancer, EC50 (μM) TOV-112D
[15] = OV-90 cell line, read-out: Ovarian cancer, EC50 (μM) OV-90
[16] = OVCAR-3 cell line, read-out: Ovarian cancer, EC50 (μM) OVCAR-3
[17] = SNU-398, SNU398 cell line, read-out: Liver cancer, EC50 SNU398
[18] = HEPG2 cell line, read-out: Liver cancer, EC50 HEPG2
[19] = PLC/PRF/5 cell line, read-out: Liver cancer, EC50 PLC/PRF/5
[20] = A-427, A427 cell line, read-out: Lung cancer, EC50 (μM) A427
[21] = HCC78, HCC-78 cell line, read-out: Lung cancer, EC50 (μM) HCC-78
[22] = NCI-H460 cell line, read-out: Lung cancer, EC50 (μM) NCI-H460
[23] = NCI-H522 cell line, read-out: Lung cancer, EC50 (μM) NCI-H522
[24] = BXPC-3, BxPC3 cell line, read-out: Pancreatic cancer, EC50 BxPC3
[25] = CAPAN-1, Capan1 cell line, read-out: Pancreatic cancer, EC50 Capan1
[26] = Capan-2, Capan2 cell line, read-out: Pancreatic cancer, EC50 Capan2
[27] = MIA PaCa-2 cell line, read-out: Pancreatic cancer, EC50 MIA PaCa-2
[28] = PANC 05.04 cell line, read-out: Pancreatic cancer, EC50 PANC 05.04
[29] = PANC-1 cell line, read-out: Pancreatic cancer, EC50 PANC-1
[30] = UPAFII cell line, read-out: Pancreatic cancer, EC50 UPAFII
[31] = SW480 cell line, read-out: Colorectal cancer, EC50 (μM) SW480
[32] = DND41, DND-41 cell line, read-out: Haematopoietic & Lymphoid tumors, EC50 (μM) DND-41
[33] = MV4-11, MV-4-11 cell line, read-out: Haematopoietic & Lymphoid tumors, EC50 (μM) MV-4-11
[34] = Rec1, REC-1 cell line, read-out: Haematopoietic & Lymphoid tumors, EC50 (μM) REC-1
[35] = SU-DHL-4, SUDHL4 cell line, read-out: Haematopoietic & Lymphoid tumors, EC50 (μM) SUDHL4
[36] = HL-60 cell line, read-out: Haematopoietic & Lymphoid tumors, EC50 (μM) HL-60
[37] = JM1 cell line, read-out: Haematopoietic & Lymphoid tumors, EC50 (μM) JM1
[38] = JURKAT, Clone E6-1 cell line, read-out: Haematopoietic & Lymphoid tumors, EC50 (μM) JURKAT, Clone E6-1
[39] = JeKo-1 cell line, read-out: Haematopoietic & Lymphoid tumors, EC50 (μM) JeKo-1
[40] = KASUMI-1 cell line, read-out: Haematopoietic & Lymphoid tumors, EC50 (μM) KASUMI-1
[41] = Loucy cell line, read-out: Haematopoietic & Lymphoid tumors, EC50 (μM) Loucy
[42] = MOLT-4 cell line, read-out: Haematopoietic & Lymphoid tumors, EC50 (μM) MOLT-4
[43] = TF-1 cell line, read-out: Haematopoietic & Lymphoid tumors, EC50 (μM) TF-1
[44] = TOLEDO cell line, read-out: Haematopoietic & Lymphoid tumors, EC50 (μM) TOLEDO

T1 sequence (P49760 whole entry): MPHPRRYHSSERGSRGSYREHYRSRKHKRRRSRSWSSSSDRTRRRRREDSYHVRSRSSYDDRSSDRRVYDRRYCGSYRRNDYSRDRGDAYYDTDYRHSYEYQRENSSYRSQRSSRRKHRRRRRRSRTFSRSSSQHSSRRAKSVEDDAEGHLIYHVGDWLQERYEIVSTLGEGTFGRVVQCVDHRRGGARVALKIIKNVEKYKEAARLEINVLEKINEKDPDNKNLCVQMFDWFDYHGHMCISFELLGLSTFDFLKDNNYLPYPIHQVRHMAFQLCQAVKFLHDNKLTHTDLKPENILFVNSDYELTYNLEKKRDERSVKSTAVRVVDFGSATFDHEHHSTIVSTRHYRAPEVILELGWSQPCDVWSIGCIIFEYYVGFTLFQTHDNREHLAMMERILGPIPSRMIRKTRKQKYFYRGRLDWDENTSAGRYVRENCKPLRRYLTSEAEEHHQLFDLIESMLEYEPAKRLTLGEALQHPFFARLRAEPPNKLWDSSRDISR

CN1CCC(Oc2ccc(NC(=O)c3n[nH]cc3/C=C/c3cccnc3)cn2)CC1 [Compound 93] was tested, and the EC50 [1, 8] was 9090 nM, the EC50 [1, 9] was 9340 nM and the EC50 [1, 10] was 1060 nM. The EC50 [1, 11] was 8650 nM, the EC50 [1, 12] was 2020 nM and the EC50 [2, 13] was 5.95 µM. It also gave an EC50 [2, 14] of 1.55 µM, an EC50 [2, 15] of over 10 µM and an EC50 [2, 16] of 2.54 µM. The EC50 [3, 17] was 2040 nM, the EC50 [3, 18] was 3620 nM and the EC50 [3, 19] was 9900 nM. It also gave an EC50 (all 50 cell lines) of 4530 nM, an EC50 [4, 20] of 4.12 µM and an EC50 [4, 21] of over 10 µM. It also gave an EC50 [4, 22] of 5.17 µM, an EC50 [4, 23] of 1.42 µM and an EC50 (CLK2) of 3.7 nM. The EC50 [5, 24] was 9040 nM, the EC50 [5, 25] was over 10000 nM and the EC50 [5, 26] was over 10000 nM. For the same molecule, the EC50 [5, 27] was 2020 nM, the EC50 [5, 28] was over 10000 nM and the EC50 [5, 29] was over 10000 nM. For the same molecule, the EC50 [5, 30] was 6880 nM, the EC50 ([6]; HCT-116, HCT116 cell line, read-out: Colorectal cancer, EC50 (μM) HCT116) was 1.88 µM and the EC50 ([6]; HT-29, HT29 cell line, read-out: Colorectal cancer, EC50 (μM) HT29) was 5.48 µM. The EC50 ([6]; SW-620, SW620 cell line, read-out: Colorectal cancer, EC50 (μM) SW620) was 1.36 µM, the EC50 ([6]; DLD-1 cell line, read-out: Colorectal cancer, EC50 (μM) DLD-1) was 1.35 µM and the EC50 ([6]; SW48 cell line, read-out: Colorectal cancer, EC50 (μM) SW48) was 0.577 µM. The EC50 [6, 31] was 3.5 µM, the EC50 (T47D) was 633 nM and the EC50 (MCF7) was over 10000 nM. For the same molecule, the EC50 (HCC1599) was 240 nM, the EC50 (DU4475) was 1020 nM and the EC50 (ZR-75-1) was 6790 nM. It also gave an EC50 (MDA-MB-231-Luc) of 6790 nM, an EC50 (BT-549) of 3760 nM and an EC50 (CAMA1) of 7760 nM. It also gave an EC50 [7, 32] of 4.78 µM, an EC50 [7, 33] of 0.273 µM and an EC50 [7, 34] of 1.26 µM. The EC50 [7, 35] was 2.56 µM, the EC50 [7, 36] was 4.59 µM and the EC50 [7, 37] was 0.765 µM. For the same molecule, the EC50 [7, 38] was 3.73 µM, the EC50 [7, 39] was 0.706 µM and the EC50 [7, 40] was 0.479 µM. The EC50 [7, 41] was 1.96 µM, the EC50 [7, 42] was 5.56 µM and the EC50 [7, 43] was 3.59 µM. It also gave an EC50 [7, 44] of 0.886 µM.

Cc1n[nH]c2ccc(-c3cncc(N[C@H]4CC[C@H](O)CC4)n3)cc12 [Compound 65] gave an EC50 [1, 8] of 665 nM, an EC50 [1, 9] of 557 nM and an EC50 [1, 10] of 803 nM. The EC50 [1, 11] was 508 nM, the EC50 [1, 12] was 2940 nM and the EC50 [2, 13] was 0.146 µM. The EC50 [2, 14] was 0.437 µM, the EC50 [2, 15] was 0.918 µM and the EC50 [2, 16] was 0.645 µM. The EC50 [3, 17] was 132 nM, the EC50 [3, 18] was 667 nM and the EC50 [3, 19] was 1260 nM. The EC50 (all 50 cell lines) was 615 nM, the EC50 [4, 20] was 0.26 µM and the EC50 [4, 21] was 1.19 µM. For the same molecule, the EC50 [4, 22] was 0.81 µM, the EC50 [4, 23] was 0.379 µM and the EC50 [5, 24] was 678 nM. It also gave an EC50 [5, 25] of 353 nM, an EC50 [5, 26] of 760 nM and an EC50 [5, 27] of 539 nM. For the same molecule, the EC50 [5, 28] was 1280 nM, the EC50 [5, 29] was 1490 nM and the EC50 [5, 30] was 594 nM. It also gave an EC50 [6, 31] of 0.456 µM, an EC50 (T47D) of 886 nM and an EC50 (MCF7) of 989 nM. It also gave an EC50 (HCC1599) of 209 nM, an EC50 (DU4475) of 114 nM and an EC50 (ZR-75-1) of 617 nM. For the same molecule, the EC50 (MDA-MB-231-Luc) was 106 nM, the EC50 (BT-549) was 414 nM and the EC50 (CAMA1) was 457 nM. The EC50 [7, 32] was 0.635 µM, the EC50 [7, 33] was 0.008 µM and the EC50 [7, 34] was 0.085 µM. The EC50 [7, 35] was 0.309 µM, the EC50 [7, 36] was 1.01 µM and the EC50 [7, 37] was 0.319 µM. For the same molecule, the EC50 [7, 38] was 0.78 µM, the EC50 [7, 39] was 0.243 µM and the EC50 [7, 40] was 0.184 µM. It also gave an EC50 [7, 41] of 0.576 µM, an EC50 [7, 42] of 0.715 µM and an EC50 [7, 43] of 0.392 µM. It also gave an EC50 [7, 44] of 0.141 µM.
